Test results taken from patent US7060277B2 (priority 1996, dated 2006).
Entries after “also recorded” stand apart in the source; their conditions may differ. Square brackets hold non-standard residues; d marks the D form. Ends that are not written are not given here. Peptide text beside a SMILES is read from it.

Experiments:
[1] = test system: SEB-mediated induction of IL-2, IFN-γ and/or TNF-β gene expression in PBMC; assay type: cell-based, human
[2] = mouse, in vivo
[3] = pig
[4] = test system: PBMC
[5] = test system: expression of IL-2 and IFN-γ genes in PBMC; assay type: cell-based, human
[6] = test system: induction of IL-2 / IFN-γ mRNA by TSST-1 in PBMC; assay type: cell-based, human
[7] = test system: SEB-induced lethal shock; parameters: species or system BALB/c mice; conditions: mouse, in vivo

## YNKKKATVQELDYNKKKATVQELIYNKKKATVQELD (YNKKKATVQELDYNKKKATVQELIYNKKKATVQELD) [Trimer]
[1]
  inhibition of induction of IL-2 and IFN-γ mRNA by SEB: strongly inhibitory

## C Y N K K K A T V Q E L D C [Cys-p12(150–161)]
[1]
  SEB antagonist activity, IL-2 and IFN-γ mRNA at 8 hrs: significant SEB antagonist activity, even upon tenfold dilution
  SEB antagonist activity, overall comparison: more powerful as antagonist than p12(150–161)

## CC(C)C[C@H](NC(=O)[C@H](CCC(=O)O)NC(=O)[C@H](CCC(N)=O)NC(=O)[C@@H](NC(=O)[C@@H](NC(=O)[C@H](C)NC(=O)[C@H](CCCCN)NC(=O)[C@H](CCCCN)NC(=O)[C@H](CCCCN)NC(=O)[C@H](CC(N)=O)NC(=O)[C@H](Cc1ccc(O)cc1)NC(=O)[C@H](CCC(N)=O)NC(=O)[C@@H](NC(=O)[C@@H](C)N)C(C)C)[C@@H](C)O)C(C)C)C(=O)N[C@@H](CC(=O)O)C(=O)N[C@H](C)C(=O)O [p14A, daV Q Y N K K K A T V Q E L Dda] (H-[dA]VQYNKKKATVQELD[dA]-OH)
[2]
  viability and side effects of mice exposed to peptide alone: stayed fully viable and showed no detectable side effects
[3]
  toxin agonist activity in vivo: without any detectable toxin agonist activity in vivo
[3]; in vivo
  symptoms of incapacitation in pigs that received peptide alone: failed to develop any symptoms of incapacitation

## CC(C)C[C@H](NC(=O)[C@H](CCC(=O)O)NC(=O)[C@H](CCC(N)=O)NC(=O)[C@@H](NC(=O)[C@@H](NC(=O)[C@H](C)NC(=O)[C@H](CCCCN)NC(=O)[C@H](CCCCN)NC(=O)[C@H](CCCCN)NC(=O)[C@H](CC(N)=O)NC(=O)[C@H](Cc1ccc(O)cc1)NC(=O)[C@@H](C)N)[C@@H](C)O)C(C)C)C(=O)N[C@@H](CC(=O)O)C(=O)N[C@H](C)C(=O)O [p12A, daY N K K K A T V Q E L Dda] (H-[dA]YNKKKATVQELD[dA]-OH)
[2]
  side effects in peptide-treated, SEB-challenged mice: No side effects
  viability and side effects of mice exposed to peptide alone: stayed fully viable and showed no detectable side effects

## K K K A T V Q E L D (KKKATVQELD) [p10(152–161)]
[1]
  antagonist activity, SEB-mediated IL-2 mRNA induction: pronounced antagonist activity; also recorded: lower, yet still significant, antagonist activity
  inhibition of IL-2 gene induction by SEB: up to 8 fold

## YNKKKATVQELD [p12(150–161), Y N K K K A T V Q E L D]
[4]
  viability of PBMC cultured with peptide: undiminished viability

## IDQFLYFDLIYSIKDTKLGNY (IDQFLYFDLIYSIKDTKLGNY) [pSEB(41–61)]
[5]
  SEB agonist activity, induction of mRNA for IL-2 or IFN-γ by RNase protection: failed to show SEB agonist activity
[1]
  block of induction of IL-2 and IFN-γ mRNA by SEB: failed to block induction of IL-2 and IFN-γ mRNA by SEB

## K K K V T A Q E L D (KKKVTAQELD) [pSEB(152–161)]
[1]
  antagonist activity, SEB-mediated IL-2 mRNA induction: pronounced antagonist activity

## YNKKKATVQELDYNKKKATVQELI (YNKKKATVQELDYNKKKATVQELD; listed as Staphylococcus aureus) [Dimer]
[1]
  SEB antagonist activity, overall comparison: more powerful as antagonist than p12(150–161)
  inhibition of IFN-γ mRNA induction by SEB, peptide diluted 100-fold: detectable inhibition
  inhibition of SEB-induced IL-2 and IFN-γ gene expression: effective as antagonist
  inhibition of induction of IL-2 and IFN-γ mRNA by SEB: strongly inhibitory
  inhibition of induction of IL-2 mRNA by SEB: inhibited
[6]
  inhibition of induction of IL-2 mRNA by TSST-1: inhibited

## TNKKKVTAQELD [pSEB(150–161), T N K K K V T A Q E L D]
[4]
  viability of PBMC cultured with peptide: undiminished viability

## lpV Q Y N K K K A T V Q E L D [p14A-LP]
[7]
  immunized mice that survived lethal SEB challenge: Ten out of 11
  immunized survivors that survived rechallenge with a double dose of SEB: 7 out of the 10
